Measured values: patent US9605003B2, “Heterocyclic compounds and uses thereof” (Infinity Pharmaceuticals, Inc., priority 2011, dated 2017)
Where a name gives a salt, the structure may show the parent alone.

Experiments:
[1] = tested on: NZB/W model; conditions: prophylactic and therapeutic model; cited from earlier work
[2] = human plasma, 5 μM; cited from earlier work
[3] = molecular target: T1, PI3Kδ (Homo sapiens, UniProt O00329); assay: PI3 Kinase HTRF assay, PI3Kδ; assay type: biochemical; conditions: Between 1 μM and 10 μM; read-out: PI3K δ IC50
T1 construct: purchased Millipore Corporation 14-604-K
T1 sequence (O00329 whole entry): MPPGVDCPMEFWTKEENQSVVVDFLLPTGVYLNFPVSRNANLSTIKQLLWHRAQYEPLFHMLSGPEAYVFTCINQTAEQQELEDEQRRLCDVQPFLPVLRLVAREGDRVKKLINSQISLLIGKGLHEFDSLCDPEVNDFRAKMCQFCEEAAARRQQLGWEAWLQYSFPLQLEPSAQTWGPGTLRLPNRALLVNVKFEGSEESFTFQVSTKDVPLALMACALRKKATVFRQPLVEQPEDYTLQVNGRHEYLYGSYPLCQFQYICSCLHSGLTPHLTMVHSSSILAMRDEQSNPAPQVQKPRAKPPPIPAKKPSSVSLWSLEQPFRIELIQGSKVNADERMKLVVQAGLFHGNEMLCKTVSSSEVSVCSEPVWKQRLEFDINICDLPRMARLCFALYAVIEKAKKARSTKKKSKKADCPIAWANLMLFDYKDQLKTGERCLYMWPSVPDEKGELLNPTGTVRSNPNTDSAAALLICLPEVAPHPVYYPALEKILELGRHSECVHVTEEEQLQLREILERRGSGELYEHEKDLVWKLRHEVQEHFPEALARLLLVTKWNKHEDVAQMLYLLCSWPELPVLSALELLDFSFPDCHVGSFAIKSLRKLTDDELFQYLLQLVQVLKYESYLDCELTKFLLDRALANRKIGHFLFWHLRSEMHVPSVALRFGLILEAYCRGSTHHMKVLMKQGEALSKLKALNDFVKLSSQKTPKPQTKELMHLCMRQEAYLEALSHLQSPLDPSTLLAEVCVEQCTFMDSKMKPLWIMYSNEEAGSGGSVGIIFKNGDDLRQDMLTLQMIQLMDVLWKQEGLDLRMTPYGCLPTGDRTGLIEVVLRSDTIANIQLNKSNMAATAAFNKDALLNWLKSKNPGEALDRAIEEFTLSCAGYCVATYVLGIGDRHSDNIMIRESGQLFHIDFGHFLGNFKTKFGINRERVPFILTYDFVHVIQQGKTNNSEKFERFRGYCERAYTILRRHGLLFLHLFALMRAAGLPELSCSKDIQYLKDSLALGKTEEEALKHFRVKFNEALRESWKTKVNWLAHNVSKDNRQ
T1 sequence (P27986 whole entry partner): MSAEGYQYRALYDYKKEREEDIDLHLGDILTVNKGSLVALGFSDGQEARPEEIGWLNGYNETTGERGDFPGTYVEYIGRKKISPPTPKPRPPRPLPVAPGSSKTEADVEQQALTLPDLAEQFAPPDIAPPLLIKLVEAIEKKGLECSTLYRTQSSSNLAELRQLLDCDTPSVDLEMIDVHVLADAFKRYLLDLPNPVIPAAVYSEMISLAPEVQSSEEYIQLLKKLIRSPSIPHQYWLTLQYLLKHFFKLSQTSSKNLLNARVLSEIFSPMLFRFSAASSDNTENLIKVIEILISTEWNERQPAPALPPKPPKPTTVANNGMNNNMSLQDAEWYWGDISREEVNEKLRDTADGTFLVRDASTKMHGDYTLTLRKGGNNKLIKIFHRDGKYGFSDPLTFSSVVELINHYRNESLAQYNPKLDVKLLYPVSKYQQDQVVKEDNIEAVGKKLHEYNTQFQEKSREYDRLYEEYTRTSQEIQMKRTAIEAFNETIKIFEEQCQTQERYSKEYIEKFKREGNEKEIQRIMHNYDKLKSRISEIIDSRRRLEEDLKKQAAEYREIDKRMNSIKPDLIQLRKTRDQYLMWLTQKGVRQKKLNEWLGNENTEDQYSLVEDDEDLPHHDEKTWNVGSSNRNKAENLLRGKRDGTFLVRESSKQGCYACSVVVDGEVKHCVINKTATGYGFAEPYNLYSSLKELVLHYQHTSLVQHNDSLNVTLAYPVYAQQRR
Source text: (§1) A PI3-Kinase HTRF® assay kit (cat No. 33-016) purchased from Millipore Corporation was used to screen compounds provided herein. This assay used specific, high affinity binding of the GRP1 pleckstrin homology (PH) domain to PIP3, the product of a Class 1A or 1B PI3 Kinase acting on its physiological substrate PIP2. During the detection phase of the assay, a complex was generated between the GST-tagged PH domain and biotinylated short chain PIP3. The biotinylated PIP3 and the GST-tagged PH domain recruited fluorophores (Streptavidin-Allophycocyanin and Europium-labeled anti-GST respectively) to form the fluorescence resonance energy transfer (FRET) architecture, generating a stable time-resolved FRET signal. The FRET complex was disrupted in a competitive manner by non-biotinylated PIP3, a product formed in the PI3 Kinase assay.
(§2) PI3 Kinase α, β, γ and δ activity was assayed using the PI3 Kinase HTRF® assay kit (catalogue No. 33-016) purchased from Millipore Corporation. Purified recombinant PI3Kα (catalogue No. 14-602-K), PI3Kβ (catalogue No. 14-603-K), PI3Kγ (catalogue No. 14-558-K) and PI3Kδ (catalogue No. 14-604-K) were obtained from Millipore Corporation. Purified recombinant PI3K enzyme was used to catalyze the phosphorylation of phosphatidylinositol 4,5-bisphosphate (PIP2 at 10 μM) to phosphatidylinositol 3,4,5-trisphosphate (PIP3) in the presence of 10 μM ATP. The assay was carried out in 384-well format and detected using a Perkin Elmer EnVision Xcite Multilabel Reader. Emission ratios were converted into percent inhibitions and imported into GraphPad Prism software. The concentration necessary to achieve inhibition of enzyme activity by 50% (IC50) was calculated using concentrations ranging from 20 μM to 0.1 nM (12-point curve). IC50 values were determined using a nonlinear regression model available in GraphPad Prism 5.

[4] = tested on: Balb/c splenic B cells; assay: B cell activation and proliferation assay (Alamar Blue); assay type: cell-based; conditions: Mus musculus
Protocol: The ability of one or more subject compounds to inhibit B cell activitation and proliferation is determined according to standard procedures known in the art. For example, an in vitro cellular proliferation assay is established that measures the metabolic activity of live cells. The assay is performed in a 96 well microtiter plate using Alamar Blue reduction. Balb/c splenic B cells are purified over a Ficoll-Paque™ PLUS gradient followed by magnetic cell separation using a MACS B cell Isolation Kit (Miletenyi). Cells are plated in 90 μl at 50,000 cells/well in B Cell Media (RPMI+10% FBS+Penn/Strep+50 μM bME+5 mM HEPES). A compound provided herein is diluted in B Cell Media and added in a 10 μl volume. Plates are incubated for 30 min at 37° C. and 5% CO2 (0.2% DMSO final concentration). A 50 μl B cell stimulation cocktail is then added containing either 10 μg/ml LPS or 5 μg/ml F(ab′)2 Donkey anti-mouse IgM plus 2 ng/ml recombinant mouse IL4 in B Cell Media. Plates are incubated for 72 hours at 37° C. and 5% CO2. A volume of 15 μL of Alamar Blue reagent is added to each well and plates are incubated for 5 hours at 37° C. and 5% CO2. Alamar Blue fluoresce is read at 560Ex/590Em, and IC50 or EC50 values are calculated using GraphPad Prism 5.

[5] = molecular target: T2, PI3Kγ (Homo sapiens, UniProt P48736); assay: PI3 Kinase HTRF assay, PI3Kγ; assay type: biochemical; conditions: Between 1 μM and 10 μM; read-out: PI3K γ IC50
T2 construct: purchased Millipore Corporation 14-558-K
Source text: as §1, §2

[6] = tested on: p190 transduced leukemic cells; conditions: about 70 mg/kg twice daily; cited from earlier work
[7] = PBS pH 7.4, 37° C., 24 hours, 5 μM; cited from earlier work
[8] = molecular target: T3, PI3Kα (Homo sapiens, UniProt P42336); assay: PI3 Kinase HTRF assay, PI3Kα; assay type: biochemical; conditions: Between 1 μM and 10 μM; read-out: PI3K α IC50
T3 construct: purchased Millipore Corporation 14-602-K
T3 sequence (P42336 whole entry): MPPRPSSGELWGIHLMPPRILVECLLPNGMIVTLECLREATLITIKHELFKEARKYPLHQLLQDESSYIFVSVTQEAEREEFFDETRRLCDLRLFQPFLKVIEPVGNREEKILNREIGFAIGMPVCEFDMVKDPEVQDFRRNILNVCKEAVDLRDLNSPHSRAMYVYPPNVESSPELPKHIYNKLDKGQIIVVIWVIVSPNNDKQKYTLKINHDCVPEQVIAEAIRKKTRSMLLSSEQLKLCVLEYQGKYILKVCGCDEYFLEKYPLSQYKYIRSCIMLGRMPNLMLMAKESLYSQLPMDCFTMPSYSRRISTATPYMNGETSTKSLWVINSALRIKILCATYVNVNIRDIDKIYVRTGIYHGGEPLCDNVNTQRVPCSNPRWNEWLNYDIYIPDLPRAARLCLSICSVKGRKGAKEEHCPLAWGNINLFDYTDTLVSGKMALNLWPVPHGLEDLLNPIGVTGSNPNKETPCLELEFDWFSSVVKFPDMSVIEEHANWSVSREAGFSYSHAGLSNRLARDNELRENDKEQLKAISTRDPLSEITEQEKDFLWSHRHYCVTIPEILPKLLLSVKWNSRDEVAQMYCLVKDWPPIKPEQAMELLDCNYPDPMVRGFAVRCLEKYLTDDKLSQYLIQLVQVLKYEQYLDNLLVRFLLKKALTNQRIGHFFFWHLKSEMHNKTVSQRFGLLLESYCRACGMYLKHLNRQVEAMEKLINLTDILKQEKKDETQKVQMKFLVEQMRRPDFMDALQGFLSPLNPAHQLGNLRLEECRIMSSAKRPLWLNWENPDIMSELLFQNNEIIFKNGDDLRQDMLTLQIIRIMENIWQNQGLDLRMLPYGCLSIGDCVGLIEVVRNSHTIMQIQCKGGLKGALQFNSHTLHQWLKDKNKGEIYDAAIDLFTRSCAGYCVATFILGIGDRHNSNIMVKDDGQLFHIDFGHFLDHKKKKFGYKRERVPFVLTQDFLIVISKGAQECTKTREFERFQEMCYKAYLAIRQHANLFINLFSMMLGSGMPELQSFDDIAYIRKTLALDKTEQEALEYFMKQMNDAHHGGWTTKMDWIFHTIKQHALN
T3 sequence (P27986 whole entry partner): as the sequence (P27986 whole entry partner) above
Source text: as §1, §2

[9] = tested on: phospho-AKT in 786-O cells; assay: PI3Kβ selective cellular assay, phospho-AKT in 786-O cells; assay type: cell-based; conditions: Homo sapiens, 786-0, 786-O cell model
Source text: A compound's ability in selectively inhibiting PI3Kβ can be assessed using 786-O cells, i.e., human kidney carcinoma cell line. Briefly, 786-O cells, in which PI3Kβ is constitutively active, can be treated with test compounds. Test compounds' ability to inhibit AKT phosphorylation in 786-O cells, therefore, is indicative of selective inhibition of PI3Kβ. Thus, by monitoring the reduction of phospho-AKT in 786-O cells (using for example, phospho-AKT antibodies), a compound's potential efficacy in selectively inhibiting PI3Kβ can be assessed.
Certain compounds provided herein (e.g., Compounds 5, 38, 103, and 106) were tested in 786-O cell model using procedures as described above.

[10] = molecular target: T4, PI3Kβ (Homo sapiens, UniProt P42338); assay: PI3 Kinase HTRF assay, PI3Kβ; assay type: biochemical; conditions: Between 1 μM and 10 μM; read-out: PI3K β IC50
T4 construct: purchased Millipore Corporation 14-603-K
T4 sequence (P42338 whole entry): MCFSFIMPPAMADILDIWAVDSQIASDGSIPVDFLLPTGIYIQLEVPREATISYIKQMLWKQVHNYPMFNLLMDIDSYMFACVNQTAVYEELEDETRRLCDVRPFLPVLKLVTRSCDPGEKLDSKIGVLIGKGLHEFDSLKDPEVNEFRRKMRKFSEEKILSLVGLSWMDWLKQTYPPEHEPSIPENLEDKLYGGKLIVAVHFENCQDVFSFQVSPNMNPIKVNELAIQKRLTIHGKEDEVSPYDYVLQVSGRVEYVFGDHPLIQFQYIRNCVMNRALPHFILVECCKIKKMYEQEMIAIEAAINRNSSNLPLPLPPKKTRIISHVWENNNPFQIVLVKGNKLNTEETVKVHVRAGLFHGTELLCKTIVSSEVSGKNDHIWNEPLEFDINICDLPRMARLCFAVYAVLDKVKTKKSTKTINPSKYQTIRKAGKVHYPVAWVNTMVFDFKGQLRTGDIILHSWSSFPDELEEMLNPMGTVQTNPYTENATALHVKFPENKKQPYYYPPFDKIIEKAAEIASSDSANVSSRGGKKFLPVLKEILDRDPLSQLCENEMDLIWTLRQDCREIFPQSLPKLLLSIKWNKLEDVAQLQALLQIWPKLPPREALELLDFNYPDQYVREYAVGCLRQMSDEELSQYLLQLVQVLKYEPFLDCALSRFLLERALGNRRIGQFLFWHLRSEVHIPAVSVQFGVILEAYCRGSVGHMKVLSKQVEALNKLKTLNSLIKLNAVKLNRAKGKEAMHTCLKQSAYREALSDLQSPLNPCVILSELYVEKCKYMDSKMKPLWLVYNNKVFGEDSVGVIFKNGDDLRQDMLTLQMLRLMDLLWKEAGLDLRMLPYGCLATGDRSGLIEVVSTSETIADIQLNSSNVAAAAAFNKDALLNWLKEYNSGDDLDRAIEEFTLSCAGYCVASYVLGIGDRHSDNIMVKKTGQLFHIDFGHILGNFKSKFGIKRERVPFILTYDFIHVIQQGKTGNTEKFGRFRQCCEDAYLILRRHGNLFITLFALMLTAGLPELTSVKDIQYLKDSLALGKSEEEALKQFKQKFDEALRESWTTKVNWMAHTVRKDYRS
T4 sequence (P27986 2-724 partner limits assumed): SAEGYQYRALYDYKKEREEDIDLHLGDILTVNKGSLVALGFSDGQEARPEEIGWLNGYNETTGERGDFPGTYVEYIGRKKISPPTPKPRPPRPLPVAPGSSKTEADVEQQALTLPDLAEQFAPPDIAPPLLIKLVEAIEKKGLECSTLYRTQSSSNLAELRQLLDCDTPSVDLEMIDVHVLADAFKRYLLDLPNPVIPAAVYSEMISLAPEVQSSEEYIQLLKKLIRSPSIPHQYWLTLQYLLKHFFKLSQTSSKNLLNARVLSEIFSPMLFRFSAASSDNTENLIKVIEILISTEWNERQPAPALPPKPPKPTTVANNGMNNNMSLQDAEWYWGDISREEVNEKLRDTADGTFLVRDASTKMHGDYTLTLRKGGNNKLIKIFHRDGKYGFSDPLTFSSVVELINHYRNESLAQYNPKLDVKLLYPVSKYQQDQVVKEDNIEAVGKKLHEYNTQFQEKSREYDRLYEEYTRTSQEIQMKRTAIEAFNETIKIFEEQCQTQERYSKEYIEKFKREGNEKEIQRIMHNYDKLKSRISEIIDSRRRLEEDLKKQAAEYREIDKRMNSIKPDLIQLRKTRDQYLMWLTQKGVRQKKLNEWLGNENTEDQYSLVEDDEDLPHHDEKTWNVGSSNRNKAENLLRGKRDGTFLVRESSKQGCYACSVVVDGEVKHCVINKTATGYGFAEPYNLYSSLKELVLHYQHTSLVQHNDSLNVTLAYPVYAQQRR
Source text: as §1, §2

[11] = tested on: phospho-AKT in RAW 264.7 cells; assay: PI3Kγ selective cellular assay, phospho-AKT in C5a stimulated RAW 264.7 cells; assay type: cell-based; conditions: Mus musculus, RAW264.7, RAW 264.7 cell model
Source text: A compound's ability in selectively inhibiting PI3Kγ can be assessed using RAW264.7 macrophages. Briefly, serum-starved PAW264.7 cells are stimulated with a known GPCR agonist C5a. (See, e.g., Camps et al., Nature Medicine (2005) 11(9): 936-943). Cells can be treated with test compounds prior to, simultaneously with, or subsequent to the stimulation by C5a. RAW 264.7 cells respond to the complement component fragment C5a through activation of the C5a receptor, and the C5a receptor activates macrophages and induces cell migration. Test compounds' ability to inhibit C5a-mediated AKT phosphorylation is indicative of selective inhibition of PI3Kγ. Thus, by monitoring the reduction of phospho-AKT in stimulated RAW 264.7 cells (using for example, phospho-AKT antibodies), a compound's potential efficacy in selectively inhibiting PI3Kγ can be assessed.
Certain compounds provided herein (e.g., Compounds 5, 38, 103, 105, 106, 107, 108, and 109) were tested in RAW 264.7 cell model using procedures as described above.

[12] = tested on: phospho-AKT in RAJI cells; assay: PI3Kδ selective cellular assay, phospho-AKT in anti-IgM stimulated RAJI cells; assay type: cell-based; conditions: Homo sapiens; RAJI cell model
Source text: A compound's ability in selectively inhibiting PI3Kδ can be assessed using RAJI cells, i.e., B lymphocyte cells derived from lymphoma patients. Briefly, serum-starved RAJI cells are stimulated with anti-human IgM, thereby causing signaling through the B-cell receptors, as described in, for example, He et al., Leukemia Research (2009) 33: 798-802. B-cell receptor signaling is important for the activation, differentiation, and survival of B cells and certain B-cell derived cancers. Reduction of phospho-AKT is indicative of compounds that may inhibit B-cell proliferation and function in certain diseases. By monitoring the reduction of phospho-AKT in stimulated RAJI cells (using for example, phospho-AKT antibodies), a compound's potential efficacy in selectively inhibiting PI3Kδ can be assessed.
Certain compounds provided herein (e.g., Compounds 5, 38, 103, 105, 106, 107, 108, and 109) were tested in RAJI cell model using procedures as described above.

[13] = tested on: phospho-AKT in SKOV-3 cells; assay: PI3Kα selective cellular assay, phospho-AKT in SKOV-3 cells; assay type: cell-based; conditions: Homo sapiens, SK-OV-3, SKOV-3 cell model
Source text: A compound's ability in selectively inhibiting PI3Kα can be assessed using SKOV-3 cells, i.e., human ovarian carcinoma cell line. Briefly, SKOV-3 cells, in which mutant PI3Kα is constitutively active, can be treated with test compounds. Test compounds' ability to inhibit AKT phosphorylation in SKOV-3 cells, therefore, is indicative of selective inhibition of PI3Kα. Thus, by monitoring the reduction of phospho-AKT in SKOV-3 cells (using for example, phospho-AKT antibodies), a compound's potential efficacy in selectively inhibiting PI3Kα can be assessed.
Certain compounds provided herein (e.g., Compounds 5, 38, 103, and 106) were tested in SKOV-3 cell model using procedures as described above.

[14] = tested on: B6.Sle1z.Sle3z model; conditions: cited from earlier work
[15] = range between 100 nM and 1 μM (bounds carry own units)

CC(C)C[C@H](NC(=O)[C@H](Cc1ccccc1)NC(=O)c1cnccn1)B(O)O [Bortezimib, bortezomib]
disease in NZB/W model [1]: effective at blocking disease

CC(C)[N+](C)(CCOC(=O)C1c2ccccc2Oc2ccccc21)C(C)C [propantheline]
plasma stability [2]: intermediate plasma stability

C[C@H](Nc1ncnc2scnc12)c1cc2cccc(-c3cnc4c(c3)CCCC4)c2c(=O)n1-c1ccccc1 [Compound 59]
IC50 [3]: 1 to 10 µM | EC50 ([4]; Between 1 μM and 10 μM): 1 to 10 µM | IC50 [5]: 1 to 10 µM

Cc1ccc(NC(=O)c2ccc(CN3CCN(C)CC3)cc2)cc1Nc1nccc(-c2cccnc2)n1 [imatinib, Imatinib Mesylate]
leukemogenesis [6]: delay but not cure leukemogenesis

Cc1nc2c(N[C@@H](C)c3cc4cccc(Cl)c4c(=O)n3-c3cccc(F)c3)ncnc2s1 [Compound 78]
IC50 [3]: 1 to 10 µM

O=C(O)CCCc1ccc(N(CCCl)CCCl)cc1 [chlorambucil]
chemical stability [7]: largely hydrolyzed over the course of 24 hours

COc1ncc(-c2cccc3cc([C@H](C)Nc4ncnc5scnc45)n(-c4ccon4)c(=O)c23)cn1 [Compound 106]
IC50 [8]: 1 to 10 µM | IC50 [9, 15]: 0.1 to 1 µM | IC50 [10]: 1 to 10 µM | IC50 [11]: 1 to 10 µM | IC50 [12]: < 0.1 µM | IC50 [13, 15]: 0.1 to 1 µM

C[C@H](Nc1ncnc2scnc12)c1cc2cccc(C(=O)O)c2c(=O)n1-c1ccccc1 [Compound 84]
IC50 [3]: 1 to 10 µM | EC50 ([4]; Between 100 nM and 1 μM): 0.1 to 1 µM | IC50 [5]: 1 to 10 µM

CCCOc1cc(N)ccc1C(=O)OCCN(CC)CC [propoxycaine]
plasma stability [2]: low plasma stability

CO[C@H]1C[C@@H]2CC[C@@H](C)[C@@](O)(O2)C(=O)C(=O)N2CCCC[C@H]2C(=O)O[C@H]([C@H](C)C[C@@H]2CC[C@@H](OCCO)[C@H](OC)C2)CC(=O)[C@H](C)/C=C(\C)[C@@H](O)[C@@H](OC)C(=O)[C@H](C)C[C@H](C)/C=C/C=C/C=C/1C [RAD001, everolimus]
lupus symptoms [14]: ameliorate lupus symptoms

CC(C)n1c([C@H](C)Nc2ncnc3scnc23)cc2cccc(-c3ccc(=O)n(C)c3)c2c1=O [Compound 103]
IC50 [8]: 1 to 10 µM | IC50 [9, 15]: 0.1 to 1 µM | IC50 [10]: 1 to 10 µM | IC50 [11, 15]: 0.1 to 1 µM | IC50 [12]: < 0.1 µM | IC50 [13, 15]: 0.1 to 1 µM

Cc1nc2c(N[C@@H](C)c3cc4cccc(-c5cnn(C)c5)c4c(=O)n3-c3ccccc3)ncnc2s1 [Compound 79]
IC50 [3]: 1 to 10 µM | IC50 [5]: 1 to 10 µM

COc1ncc(-c2cccc3cc([C@H](C)Nc4ncnc5scnc45)n(-c4ccccc4)c(=O)c23)cn1 [Compound 38]
IC50 [8]: 1 to 10 µM | EC50 ([4]; Less than 100 nanoMolar): < 0.1 µM | IC50 [9]: 1 to 10 µM | IC50 [10]: 1 to 10 µM | IC50 [11, 15]: 0.1 to 1 µM | IC50 [12]: < 0.1 µM | IC50 [13]: 1 to 10 µM
